From patent publication US20240049723A1, “PLANT GROWTH REGULATOR OR METHOD FOR PROMOTING PLANT GROWTH” (Kureha Corporation, priority 2021, published 2024) come the findings set out here.

Holding throughout (format): in vivo
One test relates to tomato (Micro Tom). The experiment in a line: Evaluation Example 4: number of flowers of tomato. As to conditions: EGT concentration 0.1 mM; 64th day after seeding. As to the method: In a plastic pot having a square of 120 mm length and a height of 100 mm, 1 L of granular soil (Kumiai horticultural soil) was placed, and one individual tomato (Micro Tom) was sown in a pot.
(§1) In a thermostatic chamber set at room temperature of 25° C., the light period was 16 hours and the dark period was 8 hours. The light conditions were set using a fluorescent lamp (PLANT FLEC, 40 W LED fluorescent lamp for plant growth, electric bulb color, available from Nippon Medical and Chemical Instruments Co., Ltd.) such that the light intensity was 5000 lx in the central part under irradiation with the fluorescent lamp. Water supply was conducted from the bottom, and the water level was set at about 5 mm. Chemical treatment was started 4 weeks after seeding. More specifically, on the 25th, 27th, 29th, 31st, 33rd, 35th, and 37th days after seeding, 50 mL of the plant growth regulator was added instead of water supply.
(§2) As the plant growth regulator, the hot water extraction product of Pseudozyma siamensis (C-EGT-PSI) prepared in Production Example 1 was used. Furthermore, for comparison, a plant growth regulator formed from 0.1 mM of ergothioneine aqueous solution was used.
On the 64th day after seeding, the number of flowers was evaluated.

Another test has as its system rapeseed. Nature of the test: Evaluation Example 3: plant height of rapeseed, petri dish. As to conditions: EGT concentration 1 mM; 7th day after seeding. The protocol: (§3) In a 9 cm petri dish on which filter paper was spread, 10 mL of the plant growth regulator was added. Ten seeds of wheat or rapeseed were sown per one petri dish. In a thermostatic chamber set at room temperature of 25° C., the light period was 16 hours and the dark period was 8 hours. The light conditions were set using a fluorescent lamp (PLANT FLEC, 40 W LED fluorescent lamp for plant growth, electric bulb color, available from Nippon Medical and Chemical Instruments Co., Ltd.) such that the light intensity was 5000 lx in the central part under irradiation with the fluorescent lamp.
(§4) As the plant growth regulator, the hot water extraction product prepared in Production Example 1 was used. Furthermore, for comparison, a plant growth regulator formed from 1 mM of ergothioneine aqueous solution was used.
(§5) The plant height of the wheat or rapeseed on the 7th day after seeding was evaluated.

Test [1] concerns Arabidopsis thaliana (Col-0). The experiment in a line: Evaluation Example 2: seed yield of Arabidopsis thaliana, C-EGT-DCH. As to conditions: EGT concentration 0.1 mM; harvested 87th day after seeding. As to the method:
(§6) One individual Arabidopsis thaliana (Col-0) was sown in a plastic pot having a diameter of 60 mm and a height of 55 mm. Plastic deep dishes each having a diameter of 160 mm and a height of 28 mm were prepared, and six pots were respectively placed therein. As soil, 45 mL of vermiculite, 22.5 mL of granular soil (Kumiai horticultural soil), and 22.5 mL of vermiculite were placed in the pot in this order.
(§7) In a growth chamber set at room temperature of 22° C., the light period was 16 hours and the dark period was 8 hours. The light conditions were set such that the light intensity was 5000 lx in the central part under irradiation with the fluorescent lamp. Water supply was conducted from the bottom, and the water level was set at about 5 mm. Chemical treatment was started […]. More specifically, on the 8th, 10th, 12th, and 14th days after seeding, 50 mL of the plant growth regulator was added instead of water supply.
As the plant growth regulator, the hot water extraction product of Dirkmeia churashimaensis (C-EGT-DCH) prepared in Production Example 1 was used. Furthermore, for comparison, a plant growth regulator formed from 0.1 mM of ergothioneine aqueous solution was used.
On the 87th day after seeding, seeds were harvested, and the seed yield was evaluated.

Test [2] relates to Arabidopsis thaliana (Col-0). The experiment in a line: Evaluation Example 6: Arabidopsis thaliana treated with Pseudozyma siamensis extracts from various extraction methods. As to conditions: EGT concentration 0.1 mM. As to the method: as §6, §7
(§8) As the plant growth regulator, various extracts of Pseudozyma siamensis obtained in Production Example 2 were used. Furthermore, for comparison, a plant growth regulator formed from 0.1 mM of ergothioneine aqueous solution was used.
On the 95th day after seeding, seeds were harvested, and the seed yield was evaluated.

Another test concerns radish (Akamaru Hatsuka). Nature of the test: Evaluation Example 5: underground part weight of radish. As to conditions: EGT concentration 0.1 mM; 28th day after seeding. As to the method: In a plastic pot having a diameter of 100 mm and a height of 135 mm, 600 mL of granular soil (Kumiai horticultural soil) was placed, and one individual radish (Akamaru Hatsuka) was sown in a pot.
The radish was managed in a greenhouse set at room temperature of 25° C. Chemical treatment was started 2 weeks after seeding. More specifically, on the 10th, 12th, 14th, and 16th days after seeding, 50 mL of the plant growth regulator was added.
as §2
On the 28th day after seeding, the underground part weight was evaluated.

A further test relates to wheat. The experiment in a line: Evaluation Example 3: plant height of wheat, petri dish. To be noted: EGT concentration 1 mM; 7th day after seeding. As to the method: as §3, §4, §5
Test [3] deals with Arabidopsis thaliana (Col-0). Nature of the test: Evaluation Example 7: Arabidopsis thaliana treated with Pseudozyma siamensis extracts from various extraction methods. As to conditions: EGT concentration 0.1 mM; 93rd day after seeding. The protocol: as §6, §7, §8
On the 93rd day after seeding, the plant height, the aboveground part weight, and the seed yield were evaluated.

The test system of test [4] is Arabidopsis thaliana (Col-0). The experiment in a line: Evaluation Example 1: seed yield of Arabidopsis thaliana, hot water extraction products. As to conditions: EGT concentration 1 mM, harvested 89th day after seeding. As to the method: as §6
as §1, with “of 22°” for “of 25°”, “started 2” for “started 4”, “the 8th, 10th, 12th,” for “the 25th, 27th, 29th, 31st, 33rd, 35th,”, “and 14th” for “and 37th”
As the plant growth regulator, the hot water extraction product prepared in Production Example 1 was used. […]
On the 89th day after seeding, seeds were harvested, and the seed yield was evaluated.

Where [5] appears, read: harvested 95th day after seeding.

Structures are written as SMILES.

`C[N+](C)(C)[C@@H](Cc1c[nH]c(=S)[nH]1)C(=O)[O-]` [EGT, ergothioneine]: in the test on tomato (Micro Tom), the “Flower number ratio to EGT” value came to 1.0 and the “Flower number ratio to untreated control” value was 1.3. Also, in the test with rapeseed, the “Rapeseed plant height ratio to EGT” value is listed as 1.0 and the “Rapeseed plant height ratio to untreated control” value is listed as 1.1. In addition, in test [1], the “Seed yield ratio to EGT” value is given as 1.0 and the “Seed yield ratio to untreated control” value amounted to 1.3. Also, in test [2] (95th day after seeding), the “Plant height ratio to EGT” value is recorded as 1.0 and the “Plant height ratio to untreated control” value turned out to be 1.1. In test [2] (setting [5]), the “Seed yield ratio to EGT” value turned out to be 1.0 and the “Seed yield ratio to untreated control” value was found to be 1.2. Moreover, in the test with radish (Akamaru Hatsuka), the “Underground part weight ratio to EGT” value amounted to 1.0 and the “Underground part weight ratio to untreated control” value came out at 1.2. In the test with wheat, the “Wheat plant height ratio to EGT” value worked out at 1.0 and the “Wheat plant height ratio to untreated control” value turned out to be 1.1. For the same compound, in test [3], the “Aboveground part weight ratio to EGT” value is 1.0, the “Aboveground part weight ratio to untreated control” value turned out to be 1.1, the “Plant height ratio to EGT” value is 1.0 and the “Plant height ratio to untreated control” value was 1.1. In test [3], the “Seed yield ratio to EGT” value was determined as 1.0 and the “Seed yield ratio to untreated control” value came out at 1.3. Moreover, in test [4] (compared with 1 mM EGT), the “Seed yield ratio to EGT” value came to 1.0. For the same compound, the “Seed yield ratio to untreated control” value in test [4] (50 mL on 8th, 10th, 12th, 14th days) amounted to 1.2.
